Assay results reported in US20040039054A1, “Use of L-carnitine and derivatives for reducing ceramide levels and potentiating antiretroviral drugs” (SIGMA-TAU INDUSTRIE, priority 1995, published 2004).

Tests used:
lymphocyte ceramide = experiment: Lymphocyte ceramide by DAG (diacylglycerol) kinase assay in AIDS patients; format: in vivo, human
ceramide = experiment: Ceramide at muscle cell level in muscle biopsy homogenates of AIDS subjects; format: in vivo, human; settings: muscle biopsy before treatment (baseline), individual patients and group mean
Procedure: (§1) Four subjects with AIDS were treated with 600 mg of AZT daily by mouth. Of these, two were also treated with L-carnitine 3 g daily. The total duration of the treatment was 6 months. Muscle biopsies were performed before and after treatment. The ceramide present at muscle cell level was determined before and after treatment, after sonicating and homogenizing the biopsy material. The viral load was determined in the same muscle homogenates, as described in Example 1.

HIV = experiment: Viral load in muscle biopsy homogenates of AIDS subjects; format: in vivo; settings: individual patients and group mean
Procedure: The determinations were carried out prior to the combined treatment, while patients were taking only AZT (T0), after 4 weeks of therapy with the L-carnitine-AZT combination (T1) and one month after discontinuation of treatment with L-carnitine (T2), leaving the patients on AZT alone. TCD4 lymphocytes were measured by flow cytometry by means of a specific monoclonal antibody (number of lymphocytes per mm^3) and the apoptotic lymphocytes by flow cytometry after staining with propydium iodide, quantifying the cells with hypodiploid nuclei (number of lymphocytes per 50,000 cells). The viral load (number of viral particles per ml of serum) was determined by quantifying HVI-1 RNA by means of a polymerase chain reaction (Amplicor HIV detection system by Roche). The Wilcoxon test was used for the statistical processing.
as §1

Structure (SMILES): Cc1cn([C@H]2C[C@H](N=[N+]=[N-])[C@@H](CO)O2)c(=O)[nH]c1=O [AZT, zidovudine]
- levels of lymphocyte ceramide, T0 (lymphocyte ceramide; T0: prior to combination treatment, patients on AZT only, 13 patients): 48±8 pmol/10^6 lymphocytes
- levels of lymphocyte ceramide, T2 (lymphocyte ceramide; T2: one month after discontinuation of L-carnitine, patients on AZT alone): 38±9 pmol/10^6 lymphocytes
- Pre-treatment ceramide (pmoL/mg protein) (ceramide): 92 pmoL/mg protein
- Post-treatment HIV (viral particles/mg protein) (HIV; muscle homogenate after 6 months, AZT 600 mg daily by mouth, with or without L-carnitine 3 g daily): 4,950 viral particles/mg protein
- Pre-treatment HIV (viral particles/mg protein) (HIV; muscle homogenate before treatment (baseline)): 4,850 viral particles/mg protein
